Data on 6 compounds can be found in patent US6921821B2, “Antagonists of melanin concentrating hormone receptor” (Abbott Laboratories, priority 2002, dated 2005).

T1 sequence (Q8JZL2 whole entry): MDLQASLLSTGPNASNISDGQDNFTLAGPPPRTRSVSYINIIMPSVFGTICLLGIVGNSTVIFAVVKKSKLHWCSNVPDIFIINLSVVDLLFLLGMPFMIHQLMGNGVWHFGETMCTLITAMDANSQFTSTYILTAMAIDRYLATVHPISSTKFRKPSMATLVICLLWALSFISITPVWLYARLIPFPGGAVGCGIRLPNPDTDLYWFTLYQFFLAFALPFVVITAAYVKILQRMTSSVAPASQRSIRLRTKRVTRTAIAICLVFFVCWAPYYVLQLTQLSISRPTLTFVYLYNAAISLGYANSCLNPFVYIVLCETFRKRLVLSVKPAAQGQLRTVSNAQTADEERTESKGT
Sequence of MCH-R1 (Q8JZL2 whole entry): as above

The first test addresses T1, murine MCHR (Mus musculus, UniProt Q8JZL2).
T1 construct: expressed in transfected cells; host or cells: HEK293
Description: Assay for release of intracellular calcium (FLIPR, Fluo-4), inhibition of MCH-induced Ca++ flux. The class given is cell-based. The conditions noted are these: test compound at a dose of 10 μM, HEK293 cells expressing the murine MCHR, read-out: inhibition of MCH (MCH induced Ca++ flux / fluorescence). The essentials:
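HEK293 cells expressing murine MCHR were loaded with Fluo-4AM (2.5 μM) and given compound (40 μM stock in 4% DMSO), with 3 min monitoring for agonism. They were then challenged with mouse MCH (12 nM as added) and FLIPR fluorescence followed 3 min more. % inhibition of MCH-induced Ca++ flux was calculated against baseline and no-compound signals.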
For orientation: Calcium assays in cells follow changes in intracellular calcium, usually with a dye or a luminescent sensor.
Regarding `N#Cc1ccc2oc(=O)cc(NC3CCN(Cc4ccc5c(c4)OCO5)CC3)c2c1` [II-75, 4-(1-Benzo[1,3]dioxol-5-ylmethyl-piperidin-4-ylamino)-2-oxo-2H-chromene-6-carbonitrile], the inhibition at 10 µM was not below 50%.

Turning to `O=c1cc(NC2CCN(Cc3ccc4c(c3)OCO4)CC2)c2cc(Cl)ccc2n1CC(F)(F)F` [Compound V-7, 4-(1-Benzo[1,3]dioxol-5-ylmethylpiperidin-4-ylamino)-6-chloro-1-(2,2,2-trifluoroethyl)-1H-quinolin-2-], the inhibition at 10 µM was not below 50%.

`CCc1ccc2c(c1)c(NC1CCN(Cc3ccc4occc4c3)CC1)cc(=O)n2C` [Compound V-25, 4-(1-Benzofuran-5-ylmethyl-piperidin-4-ylamino)-6-ethyl-1-methyl-1H-quinolin-2-one]: the inhibition at 10 µM is not below 50%.

Turning to `COc1ccc2c(c1)c(NC1CCN(Cc3ccc4occc4c3)CC1)cc(=O)n2C` [Compound V-12, 4-(1-Benzofuran-5-ylmethyl-piperidin-4-ylamino)-6-methoxy-1-methyl-1H-quinolin-2-one], the inhibition at 10 µM is not below 50%.

A further test concerns the target MCH-R1 (Mus musculus, UniProt Q8JZL2). Description: MCH-R1 antagonist activity, comparison of stereoisomers (assay not specified). The conditions noted are these: qualitative comparison of isomers.
Regarding `O=c1cc(NC2CC3CCC(C2)N3Cc2ccc3c(c2)OCO3)c2cc(Cl)ccc2o1` (stereo not drawn) [II-122, (exo)-4-(8-Benzo[1,3]dioxol-5-ylmethyl-8-aza-bicyclo[3.2.1]oct-3-ylamino)-6-chloro-chromen-2-one], the “MCH-R1 antagonist activity, relative between stereoisomers” value is listed as “more active than the endo isomer II-123”.

`C[C@H](c1ccc2ccccc2c1)N1CCC(Nc2cc(=O)oc3ccc(Cl)cc23)CC1` [II-119, (R)-6-Chloro-4-[1-(1-naphthalen-2-yl-ethyl)-piperdin-4-ylamino]-chromen-2-one]: the “MCH-R1 antagonist activity, relative between stereoisomers” value is “more active than II-120”.
